Experiment: molar heat capacity at constant pressure; xn = mol fraction of the nth substance listed
Conditions: 100 kPa, Liquid

Cc1ccccc1Cl [2-chlorotoluene] + CN1CCCC1=O
molar heat capacity at constant pressure [J/K/mol]
Conditions	293.15 K	298.15 K	303.15 K
x2 = 0	176.43	178.21	180.01
x2 = 0.0766	177.61	179.54	181.65
x2 = 0.1176	178.19	180.12	182.31
x2 = 0.1545	178.64	180.7	182.82
x2 = 0.1932	179.13	181.09	183.22
x2 = 0.2387	179.69	181.63	183.63
x2 = 0.2768	180.04	181.98	183.93
x2 = 0.3121	180.38	182.21	184.15
x2 = 0.3543	180.68	182.53	184.34
x2 = 0.3871	180.8	182.64	184.39
x2 = 0.4267	180.94	182.73	184.44
x2 = 0.4653	180.97	182.78	184.48
x2 = 0.5065	180.95	182.72	184.39
x2 = 0.5412	180.74	182.59	184.2
x2 = 0.5849	180.46	182.25	183.84
x2 = 0.6219	180.05	181.77	183.46
x2 = 0.6618	179.44	181.22	182.89
x2 = 0.7064	178.51	180.31	182.03
x2 = 0.7417	177.61	179.4	181.15
x2 = 0.7817	176.49	178.16	179.97
x2 = 0.8213	175.04	176.75	178.4
x2 = 0.8543	173.73	175.32	176.97
x2 = 0.8886	172.09	173.57	175.14
x2 = 0.9133	170.81	172.18	173.6
x2 = 0.9476	168.91	170.02	171.22

Cc1ccccc1Cl [2-chlorotoluene] + O=C1CCCN1
molar heat capacity at constant pressure [J/K/mol]
Conditions	293.15 K	298.15 K	303.15 K
x2 = 0	176.43	178.21	180.01
x2 = 0.0426	177.32	179.22	181.34
x2 = 0.0815	178.2	180.1	182.4
x2 = 0.1243	179.12	181.15	183.61
x2 = 0.1654	180	182.08	184.67
x2 = 0.2067	180.7	182.94	185.64
x2 = 0.2432	181.17	183.62	186.37
x2 = 0.2851	181.73	184.27	186.97
x2 = 0.3215	182.2	184.63	187.49
x2 = 0.3645	182.46	184.96	187.88
x2 = 0.4088	182.43	185.2	188.02
x2 = 0.4426	182.43	185.07	187.93
x2 = 0.4854	182.08	184.93	187.72
x2 = 0.5231	181.74	184.55	187.37
x2 = 0.5612	181.22	183.98	186.88
x2 = 0.5987	180.54	183.29	186.2
x2 = 0.6316	179.75	182.48	185.46
x2 = 0.6724	178.85	181.51	184.4
x2 = 0.7143	177.56	180.26	183.11
x2 = 0.7543	176.48	178.86	181.78
x2 = 0.796	175.15	177.45	180.2
x2 = 0.8342	173.85	176.13	178.66
x2 = 0.8724	172.53	174.47	177.02
x2 = 0.9088	171.32	173.04	175.4
x2 = 0.9426	170.19	171.72	173.87

O=C1CCCN1 [2-pyrrolidinone] + Cc1ccc(Cl)cc1
x1 = 1
Conditions	molar heat capacity at constant pressure [J/K/mol]
293.15 K	168.36
298.15 K	169.55
303.15 K	171.18

O=C1CCCN1 [2-pyrrolidinone] + Cc1cccc(Cl)c1
x1 = 1
Conditions	molar heat capacity at constant pressure [J/K/mol]
293.15 K	168.36
298.15 K	169.55
303.15 K	171.18

O=C1CCCN1 [2-pyrrolidinone] + Cc1ccccc1Cl
x1 = 1
Conditions	molar heat capacity at constant pressure [J/K/mol]
293.15 K	168.36
298.15 K	169.55
303.15 K	171.18

Cc1cccc(Cl)c1 [3-chlorotoluene] + CN1CCCC1=O
molar heat capacity at constant pressure [J/K/mol]
Conditions	293.15 K	298.15 K	303.15 K
x2 = 0	175.21	176.46	177.67
x2 = 0.0566	176.9	178.51	180.44
x2 = 0.0976	178.07	179.91	182.2
x2 = 0.1345	179.19	181.07	183.53
x2 = 0.1724	180.12	182.1	184.76
x2 = 0.2187	181.31	183.26	186.04
x2 = 0.2565	182.12	184.06	186.9
x2 = 0.2934	182.85	184.82	187.61
x2 = 0.3342	183.56	185.46	188.27
x2 = 0.3745	184.2	185.98	188.79
x2 = 0.4187	184.71	186.4	189.2
x2 = 0.4568	184.96	186.73	189.36
x2 = 0.4986	185.09	186.84	189.47
x2 = 0.5386	185.06	186.75	189.31
x2 = 0.5783	184.78	186.58	189.08
x2 = 0.6112	184.42	186.25	188.68
x2 = 0.6542	183.69	185.54	187.92
x2 = 0.6923	182.87	184.66	187.08
x2 = 0.7328	181.83	183.55	185.83
x2 = 0.7786	179.95	181.8	183.95
x2 = 0.8189	178.11	180	182.01
x2 = 0.8324	177.43	179.29	181.17
x2 = 0.8621	175.85	177.56	179.36
x2 = 0.9078	172.92	174.43	175.98
x2 = 0.9427	170.28	171.62	172.92

Source: the NIST ThermoML archive (doi:10.1021/je400408w)
